Data set [1] has as its system normal epithelial breast cells (MCF-10A). Nature of the data set: NBD-MsDef1 uptake by confocal microscopy, MCF-10A. Conditions: even at 5-fold higher dose. The data set is classed as cell-based. Details: dose or concentration left out as unconfirmed.
Another data set concerns fibroblasts cells. The data set can be described thus: NBD-MsDef1 uptake by confocal microscopy, fibroblasts. More on the design: dose or concentration left out as unconfirmed. Conditions: even at 5-fold higher dose. The data set is classed as cell-based.
The next data set deals with ovarian SKOV3 cells. The data set can be described thus: NBD-MsDef1 uptake by confocal microscopy, SKOV3. The data set is classed as cell-based. Conditions: 15 min at 37°C, 20, 6.6 or 2.2 µg/ml, N=4.
The nature of data set [2]: IC50 of NBD-labelled peptide, cell line not stated. The data set is classed as cell-based. Conditions: similar to native MsDef1. The procedure: (§1) Cell viability was evaluated by the standard MTT ([…])-2,5-diphenyltetrazolium bromide, Sigma) method. All cancer cells (MDA-MB-231, MCF-7, MCF-R, Hela, MCF-10A epithelial breast cells, induced pluripotent stem cells derived cardiomyocytes (iPSc) were added to the wells of 96-well flat-bottom plates at the density of 2×10^4 per well, allowed to attach overnight, and treated with different concentrations of MsDef1 (1-100 µM). After 24 h, 10 µl of MTT solution was added to each well and the plate was incubated at 37°C for 3 h. After removing the media, 200 µl of isopropanol were added to dissolve the crystals. Absorbance was read at 550 nm in an ELISA plate reader (Sunrise, Tecan, Milan, Italy), and the results are expressed as relative change with respect to the controls set as 100%. For cardiomyocytes, human iPSCs were used (Ionic Transports, St Louis).

Data set [3] deals with resistant TNBC MDA-MB-231R cells. The data set can be described thus: NBD-MsDef1 uptake by confocal microscopy, MDA-MB-231R. The data set is classed as cell-based. Conditions: 15 min at 37°C, 20, 6.6 or 2.2 µg/ml, N=4.
For another data set, the system named is normal cells. Nature of the data set: Cell viability, normal cells. Conditions: Figure 6B. The data set is classed as cell-based. The protocol: as §1
The subject of another data set is MDA-MB-231 cells. Nature of the data set: cells. The data set is classed as cell-based. Conditions: Homo sapiens, Doxorubicin dose response alone or combined with Def1 at 20 μM, N=4, unit inferred, read-out: IC50 (Figure 6C).
In a further data set the test system is MDA-MB-231R cells. The data set can be described thus: Cell death / apoptosis (TUNEL) synergy study, MDA-MB-231R. The data set is classed as cell-based. Conditions: MsDef1 ~25 μM, Doxorubicin; combination = MsDef1 pretreatment followed by Doxorubicin; N=4. The procedure: (§2) Doxorubicin resistant MCF-7R and MDA-MB-231R cells were grown in DMEM 10% FBS with increasing concentrations of Doxorubicin as described by Bielawski et al. ([40]). Cells were seeded and exposed to increasing concentrations of Doxorubicin (10 nM to 100 nM). MCF-7 or MDA-MB-231 cells were seeded in cell culture flasks and after 24 h, cells were trypsinized, counted viable cells and reseeded into a new culture flask before adding Doxorubicin again.
(§3) The percentage of apoptotic cells was determined by using TUNEL assay according to the manufacturer protocol. Briefly, cells were fixed with 1% paraformaldehyde at 4 °C, followed by two washing with PBS. Cold 70% ethanol was added to the cell pellet. Cells were then incubated at −20°C for permeabilization. After washing with PBS, cells were incubated with staining solution containing TdT enzyme and fluorescein-dUTP for 60 min at 37°C. Samples were washed with rinse buffer and resuspended in […] of propidium iodise/RNase solution for flow cytometry analysis.

In the next data set the test system is MCF-7R cells. Nature of the data set: Cell death / apoptosis (TUNEL) synergy study, MCF-7R. Conditions: MsDef1 ~25 μM, Doxorubicin; combination = MsDef1 pretreatment followed by Doxorubicin; N=4. The data set is classed as cell-based. The protocol: as §2, §3
In data set [4] the test system is GlcCer and Trx positive cancer cells. Conditions: read-out: inhibitory activity IC50 against several cancer cells. The protocol:
as §1

Another data set addresses pepsin (Sus scrofa, UniProt P00791). Conditions: SGF (200 mg NaCl, 0.2% pepsin, pH 2), 500 μL, 37°C, 2 min preincubation, 25 μL of 5 mg/ml protein, SDS PAGE read-out, n=4.

Entries after “also recorded” stand apart in the source; their conditions may differ. Bridges are numbered along the chain shown (N, C = ends). Where no end group is shown, it is not given here.

We go through three molecules from paper PMC10251204, “Medicago Sativa Defensin1 as a tumor sensitizer for improving chemotherapy: translation from anti-fungal agent to a potential anti-cancer agent” (Frontiers in Oncology, 2023).

pepsin, sequence (P00791 60-385): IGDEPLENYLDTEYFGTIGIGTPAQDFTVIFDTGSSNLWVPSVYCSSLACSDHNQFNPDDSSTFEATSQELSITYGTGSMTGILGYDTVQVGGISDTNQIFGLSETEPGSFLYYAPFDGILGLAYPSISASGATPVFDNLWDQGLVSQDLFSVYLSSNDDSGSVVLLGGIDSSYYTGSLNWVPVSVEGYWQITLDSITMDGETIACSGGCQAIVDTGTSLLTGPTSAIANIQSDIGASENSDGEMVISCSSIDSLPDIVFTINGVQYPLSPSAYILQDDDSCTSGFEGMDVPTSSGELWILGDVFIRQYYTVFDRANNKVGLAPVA
Experimental for pepsin: The Simulated Gastric Fluid (SGF) assay was performed as described by Fu et al., 2002 with some modification. Tests were performed in 500 μL of SGF (200 mg NaCl, 0.2% pepsin, pH 2) in glass tubes in a 37°C water bath with continuous stirring of the enzyme reaction. […] Five mg/ml bovine serum albumin (minimum 98%, A-7030, Sigma Aldrich) in ultrapure water was used as the positive control for pepsin digestion. Protein samples were analyzed for degradation by SDS PAGE followed by staining for 1 h and extensive washing with ultrapure water.

Broadly, the IC50 is the midpoint of a concentration-inhibition curve. Consider “6-((N-(7-nitrobenz-2-oxa-1, 3-diazol-4-yl) amino) hexanoyl -MsDef1 [NBD-MsDef1]”, for which the cell uptake entry in [1] is reported as “did not take up”; with fibroblasts cells it was “did not take up”; with ovarian SKOV3 cells it was “significant uptake”; in data set [3] it was “significant uptake”. In [2], this molecule showed a concentration for half-maximal inhibition (IC50) of 12 µM.

For the molecule `COc1cccc2c1C(=O)c1c(O)c3c(c(O)c1C2=O)C[C@@](O)(C(=O)CO)C[C@@H]3O[C@H]1C[C@H](N)[C@H](O)[C@H](C)O1` [Doxorubicin], the “dose at which normal cells are killed / still safe” value in the data set with normal cells is ~ 9.6 μM. Also, the IC50 in the data set with MDA-MB-231 cells was determined as 0.396 µM. Moreover, the cell death in the data set on MDA-MB-231R cells and in the data set with MCF-7R cells was ~ 30% in each case.

Consider “RTCENLADKYRGPCFSGCDTHCTTKENAVSGRCRDDFRCWCTKRC (disulfide 3-45, 14-33, 18-39, 22-41) [MsDef1]”, for which the IC50 in [4] lay in the range of 10 to 15 µM. The “stability to digestion in SGF” value at pepsin is reported as “remained undigested; also recorded: no significant change in the intensity of the bands”.
